Tests used:
BACE1 [1] = target: T1, BACE1 (Homo sapiens (Human), UniProt P56817); assay: In vitro enzymatic BACE1 FRET assay; type: biochemical; details: read-out: IC50 IP (μM) BACE1 Enzyme
Target sequence in this assay (P56817 46-501): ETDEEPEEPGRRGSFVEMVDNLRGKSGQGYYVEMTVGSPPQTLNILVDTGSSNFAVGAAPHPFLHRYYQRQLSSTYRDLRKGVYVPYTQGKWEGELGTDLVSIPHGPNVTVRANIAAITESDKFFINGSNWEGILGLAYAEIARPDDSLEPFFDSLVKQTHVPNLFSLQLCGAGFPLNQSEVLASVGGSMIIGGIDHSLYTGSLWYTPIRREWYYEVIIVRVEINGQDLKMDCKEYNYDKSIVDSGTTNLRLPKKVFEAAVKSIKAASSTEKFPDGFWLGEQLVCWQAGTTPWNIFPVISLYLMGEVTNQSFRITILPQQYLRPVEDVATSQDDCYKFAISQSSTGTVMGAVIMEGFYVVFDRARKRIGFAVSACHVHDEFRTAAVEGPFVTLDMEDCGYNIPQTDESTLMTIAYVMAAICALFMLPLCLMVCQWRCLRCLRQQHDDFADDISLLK
Text: (§1) In Vitro Enzymatic BACE1 and BACE2 FRET (Fluorescence Resonance Energy Transfer) Assays (Enzyme Assay Data in Table 1)

BACE1 [2] = target: T1, BACE1; assay: BACE1 cell assay; type: cell-based
Target sequence in this assay (P56817 46-501, species assumed): as the sequence (P56817 46-501) above

BACE2 = BACE2 (Homo sapiens (Human), UniProt Q9Y5Z0); assay: In vitro enzymatic BACE2 FRET assay; type: biochemical; details: read-out: IC50 IP (μM) BACE2 Enzyme
Text: as §1

Cathepsin D (CatD) = Cathepsin D (CatD) (Homo sapiens (Human), UniProt P07339); assay: CatD assay; type: biochemical; details: read-out: IC50 IP (μM) CatD
Chain of Cathepsin D (CatD) (P07339 65-412, species assumed): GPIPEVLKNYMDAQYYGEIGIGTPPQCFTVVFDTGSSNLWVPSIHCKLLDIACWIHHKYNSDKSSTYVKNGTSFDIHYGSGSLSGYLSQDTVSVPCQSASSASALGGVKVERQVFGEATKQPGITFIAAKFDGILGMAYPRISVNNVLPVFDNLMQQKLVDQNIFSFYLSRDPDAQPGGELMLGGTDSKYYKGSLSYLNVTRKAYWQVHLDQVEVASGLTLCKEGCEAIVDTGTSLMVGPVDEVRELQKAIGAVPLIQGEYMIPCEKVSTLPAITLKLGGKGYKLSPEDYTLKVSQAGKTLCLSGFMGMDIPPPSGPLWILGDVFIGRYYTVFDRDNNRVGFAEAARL

[3] = read-out: IC50 IP (μM) BACE1 Cell

Chain of BACE2 (Q9Y5Z0 63-518): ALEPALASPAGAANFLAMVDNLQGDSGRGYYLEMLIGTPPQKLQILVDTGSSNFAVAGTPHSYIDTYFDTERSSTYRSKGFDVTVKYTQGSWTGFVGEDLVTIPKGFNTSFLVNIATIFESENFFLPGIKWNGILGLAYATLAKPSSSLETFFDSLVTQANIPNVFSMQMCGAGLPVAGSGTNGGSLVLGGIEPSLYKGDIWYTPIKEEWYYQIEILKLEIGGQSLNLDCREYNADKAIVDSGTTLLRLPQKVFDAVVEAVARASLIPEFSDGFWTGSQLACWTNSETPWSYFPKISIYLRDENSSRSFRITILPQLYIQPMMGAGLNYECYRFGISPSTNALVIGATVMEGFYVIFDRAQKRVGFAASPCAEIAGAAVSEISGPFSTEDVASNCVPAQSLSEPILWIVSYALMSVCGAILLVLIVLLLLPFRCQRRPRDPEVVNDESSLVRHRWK

| Structure (SMILES) | IC50 (BACE1 [1]) | IC50 (BACE1 [2]; [3]) | IC50 (BACE2) | IC50 (BACE1 [2]) | IC50 (Cathepsin D (CatD)) |
| --- | --- | --- | --- | --- | --- |
| C[C@]1(c2cc(/C=C(\F)c3ccc(C#N)cn3)ccc2F)N=C(N)S[C@@]2(C(=O)N3CCO[C@@H]4C[C@@H]43)C[C@H]21 (single isomer, unassigned) [Example 312] | 0.0012 µM | 0.0008 µM | 0.068 µM | – | – |
| C[C@]1(c2cc(/C=C(\F)c3ccc(C#N)cn3)ccc2F)N=C(N)S[C@@]2(C(=O)N3CC[C@H](O)C3)C[C@H]21 [Example 125, 6-((Z)-2-(3-((1S,5S,6S)-3-amino-1-((S)-3-hydroxypyrrolidine-1-carbonyl)-5-methyl-2-thia-4-azabicyclo[4.1.0]hept-3-en-5-yl)-4-fluorophenyl)-1-fluorovinyl)nicotinonitrile] | 0.000592 µM | 0.000986 µM | 0.0364 µM | – | – |
| COC(=O)[C@]12C[C@H]1[C@@](C)(c1cc(/C=C(\F)c3cnc(Cl)cn3)ccc1F)N=C(N)S2 [Example 149, (1S,5S,6S)-methyl 3-amino-5-(5-((Z)-2-(5-chloropyrazin-2-yl)-2-fluorovinyl)-2-fluorophenyl)-5-methyl-2-thia-4-azabicyclo[4.1.0]hept-3-ene-1-carboxylate] | 0.0352 µM | 0.883 µM | 0.206 µM | – | – |
| COC(=O)[C@]12C[C@H]1[C@@](C)(c1cc(/C=C(\F)c3cnc(OCc4ncco4)cn3)ccc1F)N=C(N)S2 [Example 150, (1S,5S,6S)-methyl 3-amino-5-(2-fluoro-5-((Z)-2-fluoro-2-(5-(oxazol-2-ylmethoxy)pyrazin-2-yl)vinyl)phenyl)-5-methyl-2-thia-4-azabicyclo[4.1.0]hept-3-ene-1-carboxylate] | 0.0535 µM | 0.379 µM | 2.42 µM | – | – |
| Cc1cc(C#N)cnc1/C(F)=C/c1ccc(F)c([C@@]2(C)N=C(N)S[C@@]3(C(=O)N4CCOCC4)C[C@H]32)c1 [Example 160, 6-((Z)-2-(3-((1S,5S,6S)-3-amino-5-methyl-1-(morpholine-4-carbonyl)-2-thia-4-azabicyclo[4.1.0]hept-3-en-5-yl)-4-fluorophenyl)-1-fluorovinyl)-5-methylnicotinonitrile] | 0.00734 µM | – | 0.0891 µM | 0.0149 µM | – |
| COc1ncc(/C=C(\F)c2ccc(C#N)cn2)cc1[C@@]1(C)N=C(N)S[C@@]2(C(=O)N3CC[C@@H](F)C3)C[C@H]21 [Example 184, 6-((Z)-2-(5-((1S,5S,6S)-3-amino-1-((R)-3-fluoropyrrolidine-1-carbonyl)-5-methyl-2-thia-4-azabicyclo[4.1.0]hept-3-en-5-yl)-6-methoxypyridin-3-yl)-1-fluorovinyl)nicotinonitrile] | – | 0.014 µM | 0.34 µM | – | 125 µM |
| C[C@]1(c2cc(/C=C(\F)c3cnc(C#N)cn3)ccc2F)N=C(N)S[C@@]2(C(=O)N3CCOCC3)C[C@H]21 [Example 200, 5-((Z)-2-(3-((1S,5S,6S)-3-amino-5-methyl-1-(morpholine-4-carbonyl)-2-thia-4-azabicyclo[4.1.0]hept-3-en-5-yl)-4-fluorophenyl)-1-fluorovinyl)pyrazine-2-carbonitrile] | 0.001 µM | – | – | 0.004 µM | – |
| C[C@]1(c2cc(/C=C(\F)c3cnc(C#N)cn3)ccc2F)N=C(N)S[C@@]2(C(=O)N3CC[C@H](F)C3)C[C@H]21 [Example 202, 5-((Z)-2-(3-((1S,5S,6S)-3-amino-1-((S)-3-fluoropyrrolidine-1-carbonyl)-5-methyl-2-thia-4-azabicyclo[4.1.0]hept-3-en-5-yl)-4-fluorophenyl)-1-fluorovinyl)pyrazine-2-carbonitrile] | 0.001 µM | 0.001 µM | 0.04 µM | – | – |
| C[C@]1(c2cc(/C=C(\F)c3cnc(C#N)cn3)ccc2F)N=C(N)S[C@@]2(C(=O)N3CC[C@@H](F)C3)C[C@H]21 [Example 203, 5-((Z)-2-(3-((1S,5S,6S)-3-amino-1-((R)-3-fluoropyrrolidine-1-carbonyl)-5-methyl-2-thia-4-azabicyclo[4.1.0]hept-3-en-5-yl)-4-fluorophenyl)-1-fluorovinyl)pyrazine-2-carbonitrile] | 0.001 µM | 0.001 µM | 0.045 µM | – | – |
| C[C@]1(c2cc(/C=C(\F)c3cnc(C#N)cn3)ccc2F)N=C(N)S[C@@]2(C(=O)N3CCCC3)C[C@H]21 [Example 204, 5-((Z)-2-(3-((1S,5S,6S)-3-amino-5-methyl-1-(pyrrolidine-1-carbonyl)-2-thia-4-azabicyclo[4.1.0]hept-3-en-5-yl)-4-fluorophenyl)-1-fluorovinyl)pyrazine-2-carbonitrile] | 0.001 µM | – | 0.048 µM | 0.003 µM | – |
| C#C[C@H](C)Oc1cnc(/C(F)=C/c2ccc(F)c([C@@]3(C)N=C(N)S[C@@]4(C(C)=O)C[C@H]43)c2)cn1 [Example 237, 1-((1S,5S,6S)-3-amino-5-(5-((Z)-2-(5-((S)-but-3-yn-2-yloxy)pyrazin-2-yl)-2-fluorovinyl)-2-fluorophenyl)-5-methyl-2-thia-4-azabicyclo[4.1.0]hept-3-en-1-yl)ethanone] | 0.0032 µM | 0.0339 µM | 0.438 µM | – | – |
| C#CCOc1cnc(/C(F)=C/c2ccc(F)c([C@@]3(C)N=C(N)S[C@@]4(C(N)=O)C[C@H]43)c2)cn1 [Example 239, (1S,5S,6S)-3-amino-5-(2-fluoro-5-((Z)-2-fluoro-2-(5-(prop-2-yn-1-yloxy)pyrazin-2-yl)vinyl)phenyl)-5-methyl-2-thia-4-azabicyclo[4.1.0]hept-3-ene-1-carboxamide] | 0.0013 µM | – | 0.177 µM | 0.0029 µM | – |
| C[C@]1(c2cc(/C=C(\F)c3cnc(C#N)cn3)ccc2F)N=C(N)S[C@]2(CO)[C@H]1C2(F)F [Example 254, 5-((Z)-2-(3-((1S,5S,6R)-3-amino-7,7-difluoro-1-(hydroxymethyl)-5-methyl-2-thia-4-azabicyclo[4.1.0]hept-3-en-5-yl)-4-fluorophenyl)-1-fluorovinyl)pyrazine-2-carbonitrile trifluoromethyl acetate] | – | 0.0894 µM | – | – | – |
| C[C@]1(c2cc(/C=C(\F)c3ccc(C#N)cn3)cnc2F)N=C(N)S[C@@]2(C(=O)N3CCC(F)(F)C3)C[C@H]21 [Example 259, 6-((Z)-2-(5-((1S,5S,6S)-3-amino-1-(3,3-difluoropyrrolidine-1-carbonyl)-5-methyl-2-thia-4-azabicyclo[4.1.0]hept-3-en-5-yl)-6-fluoropyridin-3-yl)-1-fluorovinyl)nicotinonitrile] | 0.0095 µM | 0.0309 µM | 0.113 µM | – | – |
| C#CCOc1cnc(/C(F)=C/c2cnc(F)c([C@@]3(C)N=C(N)S[C@@]4(C(=O)N5CCOC[C@H]5C)C[C@H]43)c2)cn1 [Example 283, ((1S,5S,6S)-3-amino-5-(2-fluoro-5-((Z)-2-fluoro-2-(5-(prop-2-yn-1-yloxy)pyrazin-2-yl)vinyl)pyridin-3-yl)-5-methyl-2-thia-4-azabicyclo[4.1.0]hept-3-en-1-yl)((R)-3-methylmorpholino)methanone] | 0.0017 µM | 0.0044 µM | 0.375 µM | – | – |
| COC[C@]12C[C@H]1[C@@](C)(c1cc(/C=C(\F)c3ccc(Cl)cn3)ccc1F)N=C(N)S2 [Example 286, (1S,5S,6S)-5-(5-((Z)-2-(5-chloropyridin-2-yl)-2-fluorovinyl)-2-fluorophenyl)-1-(methoxymethyl)-5-methyl-2-thia-4-azabicyclo[4.1.0]hept-3-en-3-amine] | 0.0712 µM | 0.346 µM | 0.069 µM | – | – |
| COC[C@]12C[C@H]1[C@@](C)(c1cc(/C=C(\F)c3ccc(C#N)cn3)ccc1F)N=C(N)S2 [Example 293, 6-((Z)-2-(3-((1S,5S,6S)-3-amino-1-(methoxymethyl)-5-methyl-2-thia-4-azabicyclo[4.1.0]hept-3-en-5-yl)-4-fluorophenyl)-1-fluorovinyl)nicotinonitrile] | 0.0165 µM | – | 0.192 µM | – | 400 µM |
| C#CCOc1cnc(/C(F)=C/c2ccc(F)c([C@@]3(C)N=C(N)S[C@@]4(C(=O)N5CC[C@@H](F)C5)C[C@H]43)c2)cn1 [Example 297, ((1S,5S,6S)-3-amino-5-(2-fluoro-5-((Z)-2-fluoro-2-(5-(prop-2-yn-1-yloxy)pyrazin-2-yl)vinyl)phenyl)-5-methyl-2-thia-4-azabicyclo[4.1.0]hept-3-en-1-yl)((R)-3-fluoropyrrolidin-1-yl)methanone] | 0.0009 µM | 0.0004 µM | 0.041 µM | – | – |
| C[C@]1(c2cc(/C=C(\F)c3ccc(C#N)cn3)cnc2F)N=C(N)S[C@@]2(C(=O)N3[C@H]4COC[C@@H]3COC4)C[C@H]21 [Example 298, 6-((Z)-2-(5-((1S,5S,6S)-3-amino-1-((1R,5R)-3,7-dioxa-9-azabicyclo[3.3.1]nonane-9-carbonyl)-5-methyl-2-thia-4-azabicyclo[4.1.0]hept-3-en-5-yl)-6-fluoropyridin-3-yl)-1-fluorovinyl)nicotinonitrile] | – | – | – | 0.0173 µM | – |
| C#CCOc1cnc(/C(F)=C/c2ccc(F)c([C@@]3(C)N=C(N)S[C@@]4(C(=O)N5CC[C@H](F)C5)C[C@H]43)c2)cn1 [Example 303, ((1S,5S,6S)-3-amino-5-(2-fluoro-5-((Z)-2-fluoro-2-(5-(prop-2-yn-1-yloxy)pyrazin-2-yl)vinyl)phenyl)-5-methyl-2-thia-4-azabicyclo[4.1.0]hept-3-en-1-yl)((S)-3-fluoropyrrolidin-1-yl)methanone] | 0.0004 µM | 0.0005 µM | 0.093 µM | – | – |
| C#CCOc1cnc(/C(F)=C/c2ccc(F)c([C@@]3(C)N=C(N)S[C@@]4(C(=O)N5CCOC[C@H]5C)C[C@H]43)c2)cn1 [Example 304, ((1S,5S,6S)-3-amino-5-(2-fluoro-5-((Z)-2-fluoro-2-(5-(prop-2-yn-1-yloxy)pyrazin-2-yl)vinyl)phenyl)-5-methyl-2-thia-4-azabicyclo[4.1.0]hept-3-en-1-yl)((R)-3-methylmorpholino)methanone] | 0.0006 µM | 0.0015 µM | 0.29 µM | – | – |
